Tests used:
Assay type in all cases: in vivo
[1] = test system: KKAy mice with spontaneous type 2 diabetes; assay: Fasting blood glucose, blood insulin and insulin sensitivity index in KKAy mice; details: 28th day, 150 mg/kg
Method: The KKAy mice with spontaneous type 2 diabetes were divided into 5 groups based on the following five indexes: blood glucose reduction percentage within 40 min in an insulin tolerance test, fasting blood glucose, blood TG, blood TC, and weight. […] Animals in the three dosage groups underwent gavage with 500, 1000, and 1500 mg/kg of the traditional Chinese medicine extract composition of the present invention respectively. […] Gavage was performed once a day for 58 consecutive days, and fasting blood glucose and blood insulin level were measured (ELISA method) at the same time when a glucose tolerance test was carried out on the animals in each group on the 28th day of administration, and an insulin sensitivity index (ISI) was calculated, wherein ISI=1/(FBGmg/dl×FBIng/ml).

[2] = test system: KKAy mice with spontaneous type 2 diabetes; assay: Glycosylated hemoglobin (HbA1c) level in KKAy mice; details: 48th day, 150 mg/kg
Method: (§1) The female KKAy mice with spontaneous type 2 diabetes were fed with a diet dedicated for KKAy mice, with 5 mice in each cage. When the mice weighed over 40 g, prediction of a plurality of indexes such as blood glucose, blood lipid, and insulin resistance were performed. Based on fasting blood glucose, blood glucose reduction percentage within 40 min in an insulin tolerance test, blood triglyceride (TG), total cholesterol (TC), and weight, the mice were divided into 5 groups, with 12 mice in each group.
The KKAy mice with spontaneous type 2 diabetes were divided into 5 groups based on the following five indexes: blood glucose reduction percentage within 40 min in an insulin tolerance test, fasting blood glucose, blood TG, blood TC, and weight. […] Animals in the three dosage groups underwent gavage with 500, 1000, and 1500 mg/kg of the traditional Chinese medicine extract composition of the present invention respectively. The female C57BL/6J mice were used as a normal animal control group (Nor, underwent gavage with a equal volume of water, n=10). Gavage was performed once a day for 58 consecutive days, and blood was collected from the tail tip on the 48th day to measure the glycosylated hemoglobin level.

[3] = test system: KKAy mice with spontaneous type 2 diabetes; assay: Serum triglyceride and total cholesterol in KKAy mice; details: 14th day, 150 mg/kg
Method: as §1
The KKAy mice with spontaneous type 2 diabetes were divided into 5 groups based on the following five indexes: blood glucose reduction percentage within 40 min in an insulin tolerance test, fasting blood glucose, blood TG, blood TC, and weight. […] The female C57BL/6J mice were used as a normal animal control group (Nor, underwent gavage with a equal volume of water, n=10). Gavage was performed once a day for 58 consecutive days, and at the same time when the animals in each group underwent an insulin tolerance test on the 14th day of administration, blood was collected to measure the serum triglyceride (TG) and total cholesterol (TC) levels.

[4] = test system: KKAy mice with spontaneous type 2 diabetes; assay: Hyperinsulinemic-euglycemic clamp in KKAy mice; details: after 54th day, SSBG 6.0 mmol/L, IIR 20.0 mU/kg/min, 150 mg/kg
Method: as §1
The KKAy mice with spontaneous type 2 diabetes were divided into 5 groups based on the following five indexes: blood glucose reduction percentage within 40 min in an insulin tolerance test, fasting blood glucose, blood TG, blood TC, and weight. […] The female C57BL/6J mice were used as a normal animal control group (Nor, underwent gavage with a equal volume of water, n=10). Gavage was performed once a day for 58 consecutive days, and After the 54th day of administration to the animals in each group, 5-6 mice were randomly selected from different groups to carry out a hyperinsulinemic-euglycemic clamp test each day.

[5] = test system: KKAy mice with spontaneous type 2 diabetes; assay: Blood pressure of KKAy mice (non-invasive sphygmomanometer); details: 53rd day, 150 mg/kg
Method: The KKAy mice with spontaneous type 2 diabetes were divided into 5 groups based on the following five indexes: blood glucose reduction percentage within 40 min in an insulin tolerance test, fasting blood glucose, blood TG, blood TC, and weight. […] The female C57BL/6J mice were used as a normal animal control group (Nor, underwent gavage with a equal volume of water, n=10). Gavage was performed once a day for 58 consecutive days, and onOn the 53rd day of administration to the animals in each group, the blood pressure was measured by using an intelligent non-invasive sphygmomanometer (BP98A, Beijing Ruanlong Biotechnology Co., Ltd.).

[6] = test system: C57BL/6J mice fed with a high-fat diet; assay: Insulin tolerance test in C57BL/6J mice fed with a high-fat diet; details: 10th day, 150 mg/kg
Method: The male C57BL/6J mice were fed with a high-fat and high-nutrient diet, with 5 mice in each cage. When the mice weighed over 45 g, prediction of a plurality of indexes such as blood glucose, blood lipid, and insulin resistance were performed. Based on fasting blood glucose, blood glucose reduction percentage within 40 min in an insulin tolerance test, blood TG, blood TC, and weight, the mice were divided into 5 groups, with 12 mice in each group.
C57BL/6J mice fed a with high-fat diet and weighing more than 45 g were selected for multi-index prediction tests such as blood glucose, blood lipids, and insulin resistance, and were divided into 5 groups based on the following five indexes: blood glucose reduction percentage within 40 min in an insulin tolerance test, fasting blood glucose, blood TG, blood TC, and weight, with 12 mice in each group. […] Male C57BL/6J mice were used as a normal animal control group. Animals in the positive drug group and each test drug group underwent gavage with a corresponding dosage of the test drug each day. The normal control group and model group underwent gavage with an equal volume of water once a day for 30 days. Animals in each group underwent an insulin tolerance test on the 10th day of the administration. On the test day, the animals fasted for 4 hours (free to drink water), blood was collected from the tail tip (0 min), and then regular insulin (0.4 U/kg) was injected subcutaneously.

In the case of `CN(C)C(=N)N=C(N)N` [Met, metformin], the Blood insulin ([1]; ELISA) is reported as 36.3 ± 27.6 ng/mL, the ISI ([1]; ISI=1/(FBGmg/dl×FBIng/ml)) is reported as 0.26 ± 0.16 ×10^−3 and the HbA1c [2] is reported as 4.34 ± 0.83 %. For the same compound, the “Serum TC” value [3] was 243.8 ± 44.0 mg/dL, the “Serum TG” value [3] was 253.2 ± 172.6 mg/dL and the GIR [4] was 14.5 ± 0.6 mg/kg · min. For the same compound, the BP [5] was 118.7 ± 10.8 mmHG, the Glu ([6]; 0 min) was 104.5 ± 7.6 mg/dL and the Glu ([6]; 40 min) was 78.3 ± 10.3 mg/dL. The Glu ([6]; 90 min) was 87.5 ± 24.6 mg/dL.

Reference: patent US11744870B2, “Traditional Chinese medicine composition for treating metabolic syndrome and preparations thereof” (JIANGSU JIUXU PHARMACEUTICAL CO., LTD., priority 2018, dated 2023)
